Experimental data reported in patent US20110218188A1, “SUBSTITUTED (PYRIDYL)-AZINYLAMINE DERIVATIVES AS FUNGICIDES” (priority 2008, published 2011).

Assay: Measurement of logP values by HPLC on reversed phase columns (EEC directive 79/831 Annex V.A8)
Format: physicochemical
Conditions: pH 2.3
In the case of `COC1CCCN(C(=O)c2cc(-c3ncnc(Nc4cccc(Cl)c4)n3)ccn2)C1` (centres unmarked) [Example B179], the “logP [b]” value is reported as 2.76[b]. In the case of `CCCN(CCO)C(=O)c1cc(-c2ncnc(Nc3cccc(Cl)c3)n2)ccn1` [Example B181], the “logP [b]” value is reported as 2.51[b].

Same assay, conditions: pH 2.7
For `COCC(=O)ON=C(N)c1cc(-c2ncnc(Nc3cccc(Cl)c3)n2)ccn1` [Example B104, 4-{4-[(3-chlorophenyl)amino]-1,3,5-triazin-2-yl}-N′-[(methoxyacetyl)oxy]pyridine-2-carboximidamide], the chromatographic logP was 2.92. `O=C(NCCN1CCOCC1)c1cc(-c2ncnc(Nc3cccc(Cl)c3)n2)ccn1` [Example B105] showed a logP of 1.68. For `CC(C)CC(=O)O/N=C(/N)c1cc(-c2ncnc(Nc3cccc(Cl)c3)n2)ccn1` [Example B110], the logP was 4.12. Work on `CC(C)=CC(=O)O/N=C(/N)c1cc(-c2ncnc(Nc3cccc(Cl)c3)n2)ccn1` [Example B111] yielded a logP of 3.92. `O=C(NC1CCC1)c1cc(-c2ncnc(Nc3cccc(Cl)c3)n2)ccn1` [Example B113] gave a logP of 3.89. With `CCN(CC)CC(C)NC(=O)c1cc(-c2ncnc(Nc3cccc(Cl)c3)n2)ccn1` (centres unmarked) [Example B114] the logP was 1.9. In the case of `O=C(c1cc(-c2ncnc(Nc3cccc(Cl)c3)n2)ccn1)N1CCCCC1` [Example B115], the logP is reported as 3.1. For `O=C(c1cc(-c2ncnc(Nc3cccc(Cl)c3)n2)ccn1)N1CCOCC1` [Example B116], the logP was 2.39. With `CCCC(C)NC(=O)c1cc(-c2ncnc(Nc3cccc(Cl)c3)n2)ccn1` (centres unmarked) [Example B118] the logP was 4.54. With `NC(=S)c1cc(-c2ncnc(Nc3cccc(Cl)c3)n2)ccn1` [Example B119] the logP was 3.12. Work on `CCCCN(C)C(=O)c1cc(-c2ncnc(Nc3cccc(Cl)c3)n2)ccn1` [Example B123] yielded a logP of 3.48. Work on `CCCN(CCC)C(=O)c1cc(-c2ncnc(Nc3cccc(Cl)c3)n2)ccn1` [Example B124] yielded a logP of 3.89. In the case of `CCCN(CC)C(=O)c1cc(-c2ncnc(Nc3cccc(Cl)c3)n2)ccn1` [Example B125], the logP is reported as 3.46. `CCCCN(CCC)C(=O)c1cc(-c2ncnc(Nc3cccc(Cl)c3)n2)ccn1` [Example B126] gave a logP of 4.31. Work on `C=CCN(C)C(=O)c1cc(-c2ncnc(Nc3cccc(Cl)c3)n2)ccn1` [Example B127] yielded a logP of 2.96. For `CCCCCCN(C)C(=O)c1cc(-c2ncnc(Nc3cccc(Cl)c3)n2)ccn1` [Example B128], the logP was 4.34. In the case of `CN(CCC#N)C(=O)c1cc(-c2ncnc(Nc3cccc(Cl)c3)n2)ccn1` [Example B129], the logP is reported as 2.51. Work on `CCN(CC)C(=O)c1cc(-c2ncnc(Nc3cccc(Cl)c3)n2)ccn1` [Example B130] yielded a logP of 3.06. Compound `CC1CCN(C(=O)c2cc(-c3ncnc(Nc4cccc(Cl)c4)n3)ccn2)CC1` [Example B131] has a logP of 3.51. In the case of `CCCN(C)C(=O)c1cc(-c2ncnc(Nc3cccc(Cl)c3)n2)ccn1` [Example B132], the logP is reported as 3.06. Work on `CN(CC1CC1)C(=O)c1cc(-c2ncnc(Nc3cccc(Cl)c3)n2)ccn1` [Example B133] yielded a logP of 3.15. With `COC[C@H]1CCCN1C(=O)c1cc(-c2ncnc(Nc3cccc(Cl)c3)n2)ccn1` [Example B134] the logP was 3.08. Work on `CC1CCCN(C(=O)c2cc(-c3ncnc(Nc4cccc(Cl)c4)n3)ccn2)C1` (centres unmarked) [Example B135] yielded a logP of 3.48. Compound `CN(CCO)C(=O)c1cc(-c2ncnc(Nc3cccc(Cl)c3)n2)ccn1` [Example B136] has a logP of 2.04. `CC1CCCN(C(=O)c2cc(-c3ncnc(Nc4cccc(Cl)c4)n3)ccn2)C1C` (centres unmarked) [Example B137] showed a logP of 3.78. `O=C(c1cc(-c2ncnc(Nc3cccc(Cl)c3)n2)ccn1)N1CCCCCC1` [Example B138] showed a logP of 3.46. With `CCC1CCCCN1C(=O)c1cc(-c2ncnc(Nc3cccc(Cl)c3)n2)ccn1` (centres unmarked) [Example B139] the logP was 3.8. `O=C(c1cc(-c2ncnc(Nc3cccc(Cl)c3)n2)ccn1)N1CCCC(O)C1` (centres unmarked) [Example B140] gave a logP of 2.2. `CC1CCC(C)N1C(=O)c1cc(-c2ncnc(Nc3cccc(Cl)c3)n2)ccn1` (centres unmarked) [Example B141] gave a logP of 3.64. `CC1CCCCN1C(=O)c1cc(-c2ncnc(Nc3cccc(Cl)c3)n2)ccn1` (centres unmarked) [Example B142] showed a logP of 3.39. In the case of `C=CCN(CC=C)C(=O)c1cc(-c2ncnc(Nc3cccc(Cl)c3)n2)ccn1` [Example B143], the logP is reported as 3.67. `CN(C(=O)c1cc(-c2ncnc(Nc3cccc(Cl)c3)n2)ccn1)C1CCCCC1` [Example B144] showed a logP of 3.89. In the case of `O=C(c1cc(-c2ncnc(Nc3cccc(Cl)c3)n2)ccn1)N1CCCC(CO)C1` (centres unmarked) [Example B145], the logP is reported as 2.3. For `CC(C)CCN(C)C(=O)c1cc(-c2ncnc(Nc3cccc(Cl)c3)n2)ccn1` [Example B146], the logP was 3.87. `CC1(C)CCCN(C(=O)c2cc(-c3ncnc(Nc4cccc(Cl)c4)n3)ccn2)C1` [Example B147] showed a logP of 3.83. For `CC(C)=CCN(C)C(=O)c1cc(-c2ncnc(Nc3cccc(Cl)c3)n2)ccn1` [Example B148], the logP was 3.67. Compound `CN(C(=O)c1cc(-c2ncnc(Nc3cccc(Cl)c3)n2)ccn1)C1CCCC1` [Example B149] has a logP of 3.51. Compound `CN(C)C(=O)c1cc(-c2ncnc(Nc3cccc(Cl)c3)n2)ccn1` [Example B150] has a logP of 2.4. `CC(C)CN(C)C(=O)c1cc(-c2ncnc(Nc3cccc(Cl)c3)n2)ccn1` [Example B151] gave a logP of 3.42. For `CC1CCCN1C(=O)c1cc(-c2ncnc(Nc3cccc(Cl)c3)n2)ccn1` (centres unmarked) [Example B152], the logP was 3.23. `O=C(c1cc(-c2ncnc(Nc3cccc(Cl)c3)n2)ccn1)N1CC=CCC1` [Example B153] gave a logP of 3.11. `CC1CC(C)CN(C(=O)c2cc(-c3ncnc(Nc4cccc(Cl)c4)n3)ccn2)C1` (centres unmarked) [Example B155] gave a logP of 3.96. With `C=C(C)CN(CC)C(=O)c1cc(-c2ncnc(Nc3cccc(Cl)c3)n2)ccn1` [Example B156] the logP was 3.67. For `CCN(C)C(=O)c1cc(-c2ncnc(Nc3cccc(Cl)c3)n2)ccn1` [Example B157], the logP was 2.69. With `CC(C)N(C)C(=O)c1cc(-c2ncnc(Nc3cccc(Cl)c3)n2)ccn1` [Example B158] the logP was 2.96. Work on `CCCN(CC1CC1)C(=O)c1cc(-c2ncnc(Nc3cccc(Cl)c3)n2)ccn1` [Example B159] yielded a logP of 3.94. `CN(CC1CCCO1)C(=O)c1cc(-c2ncnc(Nc3cccc(Cl)c3)n2)ccn1` (centres unmarked) [Example B160] showed a logP of 2.76. For `CCCCCN(C)C(=O)c1cc(-c2ncnc(Nc3cccc(Cl)c3)n2)ccn1` [Example B161], the logP was 3.89. For `CCCCN(CC)C(=O)c1cc(-c2ncnc(Nc3cccc(Cl)c3)n2)ccn1` [Example B162], the logP was 3.87. For `O=CN1CCN(C(=O)c2cc(-c3ncnc(Nc4cccc(Cl)c4)n3)ccn2)CC1` [Example B163], the logP was 2.04. `CCN(CCO)C(=O)c1cc(-c2ncnc(Nc3cccc(Cl)c3)n2)ccn1` [Example B164] showed a logP of 2.25. `O=C(c1cc(-c2ncnc(Nc3cccc(Cl)c3)n2)ccn1)N1CCCCC1CO` (centres unmarked) [Example B165] showed a logP of 2.48. With `CCN(CC(C)(C)O)C(=O)c1cc(-c2ncnc(Nc3cccc(Cl)c3)n2)ccn1` [Example B166] the logP was 2.66. Work on `CCN(CC1CCCO1)C(=O)c1cc(-c2ncnc(Nc3cccc(Cl)c3)n2)ccn1` (centres unmarked) [Example B167] yielded a logP of 3.09. Compound `COC1CCN(C(=O)c2cc(-c3ncnc(Nc4cccc(Cl)c4)n3)ccn2)CC1` [Example B169] has a logP of 2.68. `N#CC1CCN(C(=O)c2cc(-c3ncnc(Nc4cccc(Cl)c4)n3)ccn2)CC1` [Example B170] showed a logP of 2.59. Compound `CCCN(C(=O)c1cc(-c2ncnc(Nc3cccc(Cl)c3)n2)ccn1)C(C)CC` (centres unmarked) [Example B171] has a logP of 4.13. With `COCCN(C)C(=O)c1cc(-c2ncnc(Nc3cccc(Cl)c3)n2)ccn1` [Example B172] the logP was 2.57. `O=C(c1cc(-c2ncnc(Nc3cccc(Cl)c3)n2)ccn1)N1CCC(O)CC1` [Example B173] showed a logP of 2.04. For `CC(C)N(CCO)C(=O)c1cc(-c2ncnc(Nc3cccc(Cl)c3)n2)ccn1` [Example B180], the logP was 2.45. With `O=C(NCCCO)c1cc(-c2ncnc(Nc3cccc(Cl)c3)n2)ccn1` [Example B183] the logP was 2.4. In the case of `CN1CCN(C(=O)c2cc(-c3ncnc(Nc4cccc(Cl)c4)n3)ccn2)CC1` [Example B184], the logP is reported as 1.5. Compound `O=C(NO)c1cc(-c2ncnc(Nc3cccc(Cl)c3)n2)ccn1` [Example B185, 4-{4-[(3-chlorophenyl)amino]-1,3,5-triazin-2-yl}-N-hydroxypyridine-2-carboxamide] has a chromatographic logP of 2.13. In the case of `CON(C)C(=O)c1cc(-c2ncnc(Nc3cccc(Cl)c3)n2)ccn1` [Example B186], the logP is reported as 2.59. Compound `Clc1cccc(Nc2ncnc(-c3ccnc(C4=NOCCO4)c3)n2)c1` [Example B187] has a logP of 2.63. In the case of `COCC(C1CC1)N(C)C(=O)c1cc(-c2ncnc(Nc3cccc(Cl)c3)n2)ccn1` (centres unmarked) [Example B188], the logP is reported as 3.09. `COC(C)C(C)N(C)C(=O)c1cc(-c2ncnc(Nc3cccc(Cl)c3)n2)ccn1` (centres unmarked) [Example B189] showed a logP of 3.15. For `O=C(NC1CC1)c1cc(-c2ncnc(Nc3ccc(F)c(Cl)c3)n2)ccn1` [Example B192], the logP was 3.31. `O=C(NCCCN1CCCCCC1=O)c1cc(-c2ncnc(Nc3ccc(F)c(Cl)c3)n2)ccn1` [Example B194] showed a logP of 3.19. In the case of `CCC(COC)NC(=O)c1cc(-c2ncnc(Nc3ccc(F)c(Cl)c3)n2)ccn1` (centres unmarked) [Example B195], the logP is reported as 3.89. Work on `CCC(C)NC(=O)c1cc(-c2ncnc(Nc3ccc(F)c(Cl)c3)n2)ccn1` (centres unmarked) [Example B197] yielded a logP of 4.16. In the case of `CN(CCC#N)C(=O)c1cc(-c2ncnc(Nc3ccc(F)c(Cl)c3)n2)ccn1` [Example B201], the logP is reported as 2.58. In the case of `CCN(CC)C(=O)c1cc(-c2ncnc(Nc3ccc(F)c(Cl)c3)n2)ccn1` [Example B202], the logP is reported as 3.13. For `CCCN(C)C(=O)c1cc(-c2ncnc(Nc3ccc(F)c(Cl)c3)n2)ccn1` [Example B203], the logP was 3.13. `CN(CC1CC1)C(=O)c1cc(-c2ncnc(Nc3ccc(F)c(Cl)c3)n2)ccn1` [Example B204] showed a logP of 3.23. Work on `CN(C)C(=O)c1cc(-c2ncnc(Nc3ccc(F)c(Cl)c3)n2)ccn1` [Example B205] yielded a logP of 2.47. Work on `CC(C)CN(C)C(=O)c1cc(-c2ncnc(Nc3ccc(F)c(Cl)c3)n2)ccn1` [Example B206] yielded a logP of 3.46. In the case of `CCN(C)C(=O)c1cc(-c2ncnc(Nc3ccc(F)c(Cl)c3)n2)ccn1` [Example B207], the logP is reported as 2.75.
